Measured values taken from patent publication US20260374794A1, “COMPOUNDS TARGETING MUTANT OF P53” (JACOBIO PHARMACEUTICALS CO., LTD., priority 2022, published 2026).

Target: T1, p53(Y220C) (Homo sapiens, UniProt P04637, Y220C)
T1 construct: His-p53 Y220C (94-294) protein
Assay: In vitro DNA binding assay (HTRF), His-p53 Y220C (94-294) with biotinylated p53 consensus DNA
Format: biochemical
Conditions: HTRF; 27 °C; His-p53 Y220C (94-294) 2.5 nM; biotinylated DNA 10 nM; normalized to 2 μM Ref-1a; EC50 = concentration at 50% Activation; read-out: p53(Y220C) EC50
Method: After His-p53 Y220C (94-294) protein was placed with a compound in the present of MAb Anti His-Tb cryptate (Cisbio, Cat. NO. 61HI2TLA) in a 384 well microplate (Greiner) for 15 min at 25 °C, the assay plate was transferred into 27 °C incubator and incubated for 60 min. Biotinalyted p53 consensus DNA (ID: p53-SEQUENCE 2 —F: 5′(biotin)-[…] 3′ —R: 5′ […] 3′) was added into the assay plate in the present of Streptaidin-d2 (Cisbio, Cat. NO. 610SADLF) cryptate (Final concentration: 20 mM HEPES pH=7.4, 75 mM KCl, 1 mM MgCl2, 0.1% (w/v) BSA, 1 mM DTT, 2.5 nM His-P53 Y220C (94-294) protein, 0.33 nM MAb Anti His-Tb cryptate, 2.5 nM Streptaidin-d2 cryptate, 10 nM Biotinalyted DNA) and incubated for another 60 min. Wells containing 2 μM reference compound Ref-1a served as high control, and wells containing same percentage of DMSO served as low control. Homogeneous time-resolved fluorescence (HTRF) signals were read on Tecan Spark multimode microplate reader. HTRF ratios for each individual well were calculated by equation: HTRF ratio=(Signal F665/Signal F620)*1000. The percent of activation of compounds treated wells were normalized between high control and low control (% Activation=(HTRF ratiocompound treated−HTRF ratiolow control)/(HTRF ratiohigh control−HTRF ratiolow control)*100%). Then the data were analyzed either by fitting a 4-parameter logistic model or by Excel to calculate EC50 values. And the EC50 was the concentration at 50% Activation on the curve.

Structure (SMILES) | EC50 [nM]
COc1cc(P(C)(C)=O)ccc1NCC#Cc1sc2c(NC3CCN(C)CC3)nccc2c1CC(F)(F)F [Example 4, (3-methoxy-4-((3-(7-((1-methylpiperidin-4-yl)amino)-3-(2,2,2-trifluoroethyl)thieno[2,3-c]pyridin-2-yl)prop-2-yn-1-yl)amino)phenyl)dimethylphosphine oxide] | 353
COc1cc(N2CC(=O)NS2(=O)=O)ccc1NCC#Cc1sc2c(N[C@@H]3CCN(C)C[C@@H]3F)cccc2c1CC(F)(F)F [Example 5, 5-(4-((3-(7-(((3S,4R)-3-fluoro-1-methylpiperidin-4-yl)amino)-3-(2,2,2-trifluoroethyl)benzo[b]thiophen-2-yl)prop-2-yn-1-yl)amino)-3-methoxyphenyl)-1,2,5-thiadiazolidin-3-one-1,1-dioxide] | 323
COc1cc(P(C)(C)=O)ccc1NCC#Cc1sc2c(NC3CCS(=N)(=O)CC3)cccc2c1CC(F)(F)F (stereo not drawn) [Example 6, (4-((3-(7-((1-imino-1-oxidohexahydro-1l6-thiopyran-4-yl)amino)-3-(2,2,2-trifluoroethyl)benzo[b]thiophen-2-yl)prop-2-yn-1-yl)amino)-3-methoxyphenyl)dimethylphosphine oxide] | 209
COc1cc(P(C)(C)=O)ccc1NCC#Cc1sc2c(NCC3(F)CCN(C)CC3)cccc2c1CC(F)(F)F [Example 16, (4-((3-(7-(((4-fluoro-1-methylpiperidin-4-yl)methyl)amino)-3-(2,2,2-trifluoroethyl)benzo[b]thiophen-2-yl)prop-2-yn-1-yl)amino)-3-methoxyphenyl)dimethylphosphine oxide] | 250
COc1cc(P(C)(C)=O)ccc1NCC#Cc1sc2c(N[C@H]3CCN(C)C[C@H]3F)cccc2c1C(C)C(F)(F)F (stereo partly drawn) [Example 17, (4-((3-(7-(((3R,4S)-3-fluoro-1-methylpiperidin-4-yl)amino)-3-(1,1,1-trifluoropropan-2-yl)benzo[b]thiophen-2-yl)prop-2-yn-1-yl)amino)-3-methoxyphenyl)dimethylphosphine oxide] | 251
COc1cc(P(C)(C)=O)ccc1NCC#Cc1sc2c(N[C@@H]3CCN(C)C[C@@H]3F)cccc2c1C(C)C(F)(F)F (stereo partly drawn) [Example 18, (4-((3-(7-(((3S,4R)-3-fluoro-1-methylpiperidin-4-yl)amino)-3-(1,1,1-trifluoropropan-2-yl)benzo[b]thiophen-2-yl)prop-2-yn-1-yl)amino)-3-methoxyphenyl)dimethylphosphine oxide] | 574

More lines, now with the values ahead:

EC50 [nM] | Structure (SMILES)
424 | CN1CC[C@@H](Nc2cccc3c(CC(F)(F)F)c(C#C[C@@H]4Cc5cc(P(C)(C)=O)ccc5N4)sc23)[C@@H](F)C1 [Example 21, ((S)-2-((7-(((3S,4R)-3-fluoro-1-methylpiperidin-4-yl)amino)-3-(2,2,2-trifluoroethyl)benzo[b]thiophen-2-yl)ethynyl)indolin-5-yl)dimethylphosphine oxide]
313 | CN1CC[C@@H](Nc2cccc3c(CC(F)(F)F)c(C#C[C@H]4Cc5cc(P(C)(C)=O)ccc5N4)sc23)[C@@H](F)C1 [Example 22, ((R)-2-((7-(((3S,4R)-3-fluoro-1-methylpiperidin-4-yl)amino)-3-(2,2,2-trifluoroethyl)benzo[b]thiophen-2-yl)ethynyl)indolin-5-yl)dimethylphosphine oxide]
62 | COc1cc([S@](=N)(=O)C2CCOCC2)ccc1NCC#Cc1sc2c(N[C@@H]3CCN(C)C[C@@H]3F)cccc2c1CC(F)(F)F [Example 25, (R)-(4-((3-(7-(((3S,4R)-3-fluoro-1-methylpiperidin-4-yl)amino)-3-(2,2,2-trifluoroethyl)benzo[b]thiophen-2-yl)prop-2-yn-1-yl)amino)-3-methoxyphenyl)(imino)(tetrahydro-2H-pyran-4-yl)-16-sulfanone]
